Test results reported in the supplement of paper PMC6045584.
± gives the standard deviation of the averaged measurements.

Tests used:
DOXORUBICIN = compound: COc1cccc2c1C(=O)c1c(O)c3c(c(O)c1C2=O)C[C@@](O)(C(=O)CO)C[C@@H]3O[C@H]1C[C@H](N)[C@H](O)[C@H](C)O1 [DOXORUBICIN]; assay: surviving fraction relative to DMSO-only wells; higher = less growth inhibition; conditions: exposure time: 5 days
In short: (§1)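 Surviving fraction is CellTiter-Glo luminescence divided by the median of wells given DMSO only. For this, log-phase tumour cell lines went into 384-well plates at 250–500 cells per well and, 24 hours later, into five days of continuous inhibitor exposure at 0.5, 1, 5, 10, 50, 100, 500 and 1000 nM. Lines were screened three times and retained only if replicate Pearson r >0.7 and median Z' >0.3.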

VISMODEGIB = compound: CS(=O)(=O)c1ccc(C(=O)Nc2ccc(Cl)c(-c3ccccn3)c2)c(Cl)c1 [VISMODEGIB]; assay: as above; conditions: exposure time: 5 days
In short: as §1

| Test System | surviving fraction (DOXORUBICIN; 0.5 nM) | surviving fraction (DOXORUBICIN; 1 nM) | surviving fraction (DOXORUBICIN; 5 nM) | surviving fraction (DOXORUBICIN; 10 nM) | surviving fraction (DOXORUBICIN; 50 nM) | surviving fraction (DOXORUBICIN; 100 nM) | surviving fraction (DOXORUBICIN; 500 nM) | surviving fraction (DOXORUBICIN; 1000 nM) | surviving fraction (VISMODEGIB; 0.5 nM) | surviving fraction (VISMODEGIB; 1 nM) | surviving fraction (VISMODEGIB; 5 nM) | surviving fraction (VISMODEGIB; 10 nM) | surviving fraction (VISMODEGIB; 50 nM) | surviving fraction (VISMODEGIB; 100 nM) | surviving fraction (VISMODEGIB; 500 nM) | surviving fraction (VISMODEGIB; 1000 nM) |
| --- | --- | --- | --- | --- | --- | --- | --- | --- | --- | --- | --- | --- | --- | --- | --- | --- |
| DU4475 BREAST | 0.818 ± 0.31 | 1.23 ± 0.41 | 0.233 ± 0.071 | 0.139 ± 0.054 | 0.029 ± 0.0066 | 0.0287 ± 0.0051 | 0.025 ± 0.0046 | 0.0273 ± 0.0051 | 0.969 ± 0.25 | 1.1 ± 0.28 | 1 ± 0.1 | 0.895 ± 0.29 | 1.1 ± 0.41 | 0.876 ± 0.17 | 0.899 ± 0.22 | 0.977 ± 0.32 |
| H23 LUNG | 1.01 ± 0.016 | 1.03 ± 0.027 | 1 ± 0.034 | 0.629 ± 0.058 | 0.403 ± 0.031 | 0.237 ± 0.028 | 0.0293 ± 0.0015 | 0.0267 ± 0.0021 | 0.981 ± 0.01 | 0.997 ± 0.043 | 1.05 ± 0.03 | 1.022 ± 0.0032 | 1 ± 0.069 | 1.16 ± 0.072 | 1.01 ± 0.034 | 1.06 ± 0.067 |
| HCC78 LUNG | 0.894 ± 0.24 | 0.733 ± 0.17 | 0.63 ± 0.1 | 0.538 ± 0.083 | 0.0747 ± 0.013 | 0.0363 ± 0.0042 | 0.0317 ± 0.0015 | 0.0217 ± 0.0042 | 1.08 ± 0.11 | 0.941 ± 0.1 | 0.982 ± 0.14 | 1.11 ± 0.14 | 1.1 ± 0.21 | 1.32 ± 0.2 | 1.04 ± 0.13 | 0.934 ± 0.19 |
| HCC202 BREAST | 1.2 ± 0.18 | 1.26 ± 0.26 | 0.896 ± 0.058 | 1.04 ± 0.49 | 0.697 ± 0.069 | 0.457 ± 0.065 | 0.0987 ± 0.019 | 0.0423 ± 0.0078 | 1.1 ± 0.14 | 0.842 ± 0.13 | 1.06 ± 0.2 | 1.04 ± 0.25 | 0.945 ± 0.46 | 0.785 ± 0.2 | 0.908 ± 0.14 | 0.732 ± 0.14 |
| HCC1395 BREAST | 0.926 ± 0.18 | 1.11 ± 0.18 | 1.03 ± 0.036 | 1.19 ± 0.11 | 0.928 ± 0.11 | 1.07 ± 0.08 | 0.693 ± 0.085 | 0.808 ± 0.091 | 0.717 ± 0.018 | 0.758 ± 0.12 | 0.818 ± 0.031 | 0.83 ± 0.12 | 0.681 ± 0.14 | 0.695 ± 0.055 | 0.676 ± 0.052 | 0.772 ± 0.076 |
| HCC1806 BREAST | 0.963 ± 0.033 | 1.01 ± 0.076 | 0.75 ± 0.068 | 0.369 ± 0.039 | 0.102 ± 0.013 | 0.0793 ± 0.005 | 0.0243 ± 0.0011 | 0.0257 ± 0.0011 | 0.902 ± 0.088 | 1.03 ± 0.043 | 1.18 ± 0.1 | 1.05 ± 0.083 | 0.932 ± 0.093 | 0.98 ± 0.1 | 0.896 ± 0.11 | 0.904 ± 0.12 |
| HCC1954 BREAST | 1.03 ± 0.19 | 0.955 ± 0.18 | 0.829 ± 0.015 | 0.772 ± 0.058 | 0.465 ± 0.067 | 0.169 ± 0.0085 | 0.0355 ± 0.00071 | 0.0328 ± 0.00035 | 0.673 ± 0.096 | 0.637 ± 0.0088 | 0.72 ± 0.015 | 0.786 ± 0.03 | 0.768 ± 0.18 | 0.6402 ± 0.0025 | 0.618 ± 0.01 | 0.546 ± 0.025 |
| HCT15 LARGE INTESTINE | 1.01 ± 0.016 | 0.986 ± 0.044 | 1.01 ± 0.045 | 0.987 ± 0.02 | 0.486 ± 0.044 | 0.18 ± 0.018 | 0.0863 ± 0.005 | 0.066 ± 0.0027 | 0.966 ± 0.01 | 1.04 ± 0.052 | 0.998 ± 0.033 | 1.02 ± 0.072 | 0.931 ± 0.034 | 1.01 ± 0.048 | 0.9417 ± 0.0025 | 1.03 ± 0.033 |
| HELA CERVIX | 0.998 ± 0.055 | 1.03 ± 0.022 | 0.897 ± 0.029 | 0.595 ± 0.031 | 0.316 ± 0.007 | 0.309 ± 0.022 | 0.0252 ± 0.00076 | 0.0252 ± 0.0013 | 1 ± 0.046 | 1.05 ± 0.052 | 0.9757 ± 0.0083 | 1.02 ± 0.07 | 1.0558 ± 0.001 | 1.14 ± 0.041 | 1.04 ± 0.058 | 1.15 ± 0.019 |
| HOS BONE | 1.009 ± 0.0046 | 1 ± 0.028 | 0.686 ± 0.0056 | 0.352 ± 0.1 | 0.087 ± 0.0053 | 0.043 ± 0.007 | 0.024 | 0.0283 ± 0.0015 | 1 ± 0.013 | 1.01 ± 0.015 | 1.012 ± 0.0066 | 1.03 ± 0.026 | 0.991 ± 0.026 | 1.03 ± 0.05 | 1.01 ± 0.029 | 1.01 ± 0.079 |
| HOSMNG BONE | 0.976 ± 0.05 | 1.02 ± 0.032 | 0.983 ± 0.083 | 0.98 ± 0.07 | 0.549 ± 0.051 | 0.506 ± 0.025 | 0.165 ± 0.056 | 0.153 ± 0.037 | 0.972 ± 0.12 | 0.993 ± 0.15 | 0.942 ± 0.095 | 0.906 ± 0.067 | 0.942 ± 0.15 | 0.991 ± 0.093 | 1.02 ± 0.23 | 1.05 ± 0.16 |
| HSSYII SYNOVIAL | 0.901 ± 0.025 | 0.759 ± 0.018 | 0.381 ± 0.02 | 0.157 ± 0.015 | 0.0632 ± 0.0042 | 0.0312 ± 0.002 | 0.0185 ± 0.0022 | 0.0217 ± 0.0019 | 0.894 ± 0.023 | 0.931 ± 0.038 | 0.904 ± 0.078 | 0.906 ± 0.037 | 0.812 ± 0.027 | 0.831 ± 0.03 | 0.795 ± 0.026 | 0.771 ± 0.014 |
| HT1080 SOFT TISSUE | 0.992 ± 0.01 | 0.95 ± 0.041 | 0.553 ± 0.0044 | 0.333 ± 0.037 | 0.265 ± 0.0078 | 0.222 ± 0.018 | 0.0267 ± 0.00058 | 0.0437 ± 0.0045 | 1.021 ± 0.01 | 0.971 ± 0.028 | 1 ± 0.014 | 0.978 ± 0.03 | 0.968 ± 0.046 | 0.991 ± 0.048 | 0.962 ± 0.024 | 0.994 ± 0.06 |
| HU09 BONE | 0.924 ± 0.04 | 0.964 ± 0.11 | 0.861 ± 0.13 | 0.539 ± 0.1 | 0.0467 ± 0.0046 | 0.0277 ± 0.005 | 0.0227 ± 0.0023 | 0.0247 ± 0.0021 | 1.03 ± 0.079 | 0.973 ± 0.088 | 1.07 ± 0.14 | 1.08 ± 0.17 | 0.913 ± 0.04 | 0.898 ± 0.066 | 0.802 ± 0.036 | 0.886 ± 0.08 |
| HUO3N1 BONE | 0.977 ± 0.053 | 1.02 ± 0.021 | 0.953 ± 0.052 | 0.857 ± 0.049 | 0.47 ± 0.016 | 0.311 ± 0.025 | 0.08133 ± 0.00058 | 0.0547 ± 0.00058 | 1.04 ± 0.04 | 0.976 ± 0.038 | 1.06 ± 0.061 | 1.03 ± 0.062 | 0.977 ± 0.025 | 0.962 ± 0.052 | 0.994 ± 0.03 | 0.901 ± 0.059 |
| JIMT1 BREAST | 0.943 ± 0.0048 | 0.963 ± 0.025 | 0.994 ± 0.04 | 0.901 ± 0.036 | 0.56 ± 0.055 | 0.48 ± 0.017 | 0.225 ± 0.012 | 0.087 ± 0.019 | 0.906 ± 0.044 | 0.89 ± 0.016 | 0.9112 ± 0.0064 | 0.948 ± 0.041 | 0.849 ± 0.035 | 0.972 ± 0.021 | 0.881 ± 0.053 | 0.952 ± 0.057 |
